# Reference: PubChem BioAssay AID2060612 (Molecular Pharmacology Branch, DTP, NCI, 2025)
# Several values for one entry are separate records, joined by “and”; a condition that tells them apart may be missing. Identical values can stand only once.
# Tested on: 565232-114-T-J1-PDC complex spheroid viability
# Assay: Anticancer human tumor 565232-114-T-J1-PDC patient-derived bladder carcinoma cell line growth inhibition [CLK]
# Conditions: for viability, T/C: stronger effect = lower value
# How it was run: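 Multi-cell-type spheroids combined patient-derived tumor cells with HUVEC endothelial cells and human mesenchymal stem cells. Paired agents were dosed in half-log steps down from about clinical Cmax, or from 10 microM where Cmax was unknown.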
# [1] = curve of first compound, second compound 0.0316 µM
# [2] = curve of first compound, second compound 0.1 µM
# [3] = curve of first compound, second compound 0.316 µM
# [4] = curve of first compound, second compound 1 µM
# [5] = curve of first compound, second compound 3.16 µM
# [6] = curve of first compound, second compound 10 µM
# [7] = second compound 0.0316 µM, first compound 0.0316 µM
# [8] = second compound 0.0316 µM, first compound 0.1 µM
# [9] = second compound 0.0316 µM, first compound 0.316 µM
# [10] = second compound 0.0316 µM, first compound 1 µM
# [11] = second compound 0.0316 µM, first compound 3.16 µM
# [12] = second compound 0.0316 µM, first compound 10 µM
# [13] = second compound 0.1 µM, first compound 0.0316 µM
# [14] = second compound 0.1 µM, first compound 0.1 µM
# [15] = second compound 0.1 µM, first compound 0.316 µM
# [16] = second compound 0.1 µM, first compound 1 µM
# [17] = second compound 0.1 µM, first compound 3.16 µM
# [18] = second compound 0.1 µM, first compound 10 µM
# [19] = second compound 0.316 µM, first compound 0.0316 µM
# [20] = second compound 0.316 µM, first compound 0.1 µM
# [21] = second compound 0.316 µM, first compound 0.316 µM
# [22] = second compound 0.316 µM, first compound 1 µM
# [23] = second compound 0.316 µM, first compound 3.16 µM
# [24] = second compound 0.316 µM, first compound 10 µM
# [25] = second compound 1 µM, first compound 0.0316 µM
# [26] = second compound 1 µM, first compound 0.1 µM
# [27] = second compound 1 µM, first compound 0.316 µM
# [28] = second compound 1 µM, first compound 1 µM
# [29] = second compound 1 µM, first compound 3.16 µM
# [30] = second compound 1 µM, first compound 10 µM
# [31] = second compound 3.16 µM, first compound 0.0316 µM
# [32] = second compound 3.16 µM, first compound 0.1 µM
# [33] = second compound 3.16 µM, first compound 0.316 µM
# [34] = second compound 3.16 µM, first compound 1 µM
# [35] = second compound 3.16 µM, first compound 3.16 µM
# [36] = second compound 3.16 µM, first compound 10 µM
# [37] = second compound 10 µM, first compound 0.0316 µM
# [38] = second compound 10 µM, first compound 0.1 µM
# [39] = second compound 10 µM, first compound 0.316 µM
# [40] = second compound 10 µM, first compound 1 µM
# [41] = second compound 10 µM, first compound 3.16 µM
# [42] = second compound 10 µM, first compound 10 µM
# 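Further: spheroids exposed to compounds for 7 days before readout.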
# 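Wherever viability, T/C is given: 100% = DMSO vehicle wells with luminescence normalized to vehicle control.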
compound,measurement,setting,value
O=C(c1cc(Cc2n[nH]c(=O)c3ccccc23)ccc1F)N1CCN(C(=O)C2CC2)CC1 + CN1CCN(c2cc(C(=O)Nc3cc4cc(-c5cnn(C)c5)ccc4cn3)ccn2)CC1,IC50,[1],> 10000 nM
same,IC50,[2],> 10000 nM
same,IC50,[3],< 31.6 nM
same,IC50,[4],< 31.6 nM
same,IC50,[5],< 31.6 nM
same,IC50,[6],< 31.6 nM
same,"viability, T/C",[7],110%
same,"viability, T/C",[8],117%
same,"viability, T/C",[9],109%
same,"viability, T/C",[10],94.4%
same,"viability, T/C",[11],128%
same,"viability, T/C",[12],130%
same,"viability, T/C",[13],122%
same,"viability, T/C",[14],106%
same,"viability, T/C",[15],139%
same,"viability, T/C",[16],115%
same,"viability, T/C",[17],148%
same,"viability, T/C",[18],108%
same,"viability, T/C",[19],23.3%
same,"viability, T/C",[20],22.6%
same,"viability, T/C",[21],24.8%
same,"viability, T/C",[22],20.1%
same,"viability, T/C",[23],19.8%
same,"viability, T/C",[24],16%
same,"viability, T/C",[25],0.19%
same,"viability, T/C",[26],1.21%
same,"viability, T/C",[27],0.25%
same,"viability, T/C",[28],0.17%
same,"viability, T/C",[29],0.18%
same,"viability, T/C",[30],0.19%
same,"viability, T/C",[31],0.15%
same,"viability, T/C",[32],0.29%
same,"viability, T/C",[33],1.69%
same,"viability, T/C",[34],0.26%
same,"viability, T/C",[35],2.21%
same,"viability, T/C",[36],4.24%
same,"viability, T/C",[37],1.42%
same,"viability, T/C",[38],0.19%
same,"viability, T/C",[39],3.03%
same,"viability, T/C",[40],0.19%
same,"viability, T/C",[41],0.25%
same,"viability, T/C",[42],0.28%
Cn1ncnc1[C@H]1c2n[nH]c(=O)c3cc(F)cc(c23)N[C@@H]1c1ccc(F)cc1,"viability, T/C",compound 0.000316 µM,93.9% and 110%
same,"viability, T/C",compound 0.001 µM,72.5% and 92.8%
same,"viability, T/C",compound 0.00316 µM,77.5% and 109%
same,"viability, T/C",compound 0.01 µM,109% and 97.4%
same,"viability, T/C",compound 0.0316 µM,104% and 99.3%
same,"viability, T/C",compound 0.1 µM,105% and 37%
same,IC50,curve of compound,> 100 nM and 78.6 nM
CC1(C)CCC(CN2CCN(c3ccc(C(=O)NS(=O)(=O)c4ccc(NCC5CCOCC5)c([N+](=O)[O-])c4)c(Oc4cnc5[nH]ccc5c4)c3)CC2)=C(c2ccc(Cl)cc2)C1,"viability, T/C",compound 0.0316 µM,83.5% and 111%
same,"viability, T/C",compound 0.1 µM,86.5% and 97.6%
same,"viability, T/C",compound 0.316 µM,80.5% and 95.8%
same,"viability, T/C",compound 1 µM,72.6% and 95.6%
same,"viability, T/C",compound 3.16 µM,78.2% and 100%
same,"viability, T/C",compound 10 µM,38.4% and 45.6%
same,IC50,curve of compound,7080 nM and 9110 nM
C#Cc1c(F)ccc2cc(O)cc(-c3ncc4c(N5CC6CCC(C5)N6)nc(OCC56CCCN5CC(F)C6)nc4c3F)c12 (stereo not given) + CNC(=O)c1ccc(Nc2nc(OC3CCCC3)c3c(-c4ccc5nc(C)oc5c4)c[nH]c3n2)c(OC)c1,IC50,[1],> 10000 nM
same,IC50,[2],< 31.6 nM
same,IC50,[3],< 31.6 nM
same,IC50,[4],< 31.6 nM
same,IC50,[5],< 31.6 nM
same,IC50,[6],< 31.6 nM
same,"viability, T/C",[7],78.9%
same,"viability, T/C",[8],67.7%
same,"viability, T/C",[9],95.5%
same,"viability, T/C",[10],75.6%
same,"viability, T/C",[11],119%
same,"viability, T/C",[12],89.6%
same,"viability, T/C",[13],49.6%
same,"viability, T/C",[14],46.9%
same,"viability, T/C",[15],45.9%
same,"viability, T/C",[16],53.2%
same,"viability, T/C",[17],51.5%
same,"viability, T/C",[18],44.2%
same,"viability, T/C",[19],33.3%
same,"viability, T/C",[20],31.7%
same,"viability, T/C",[21],28.9%
same,"viability, T/C",[22],28.1%
same,"viability, T/C",[23],31.5%
same,"viability, T/C",[24],23%
same,"viability, T/C",[25],25.8%
same,"viability, T/C",[26],25.6%
same,"viability, T/C",[27],22.3%
same,"viability, T/C",[28],17.4%
same,"viability, T/C",[29],21.5%
same,"viability, T/C",[30],17.3%
same,"viability, T/C",[31],18.6%
same,"viability, T/C",[32],16.2%
same,"viability, T/C",[33],18.8%
same,"viability, T/C",[34],16.4%
same,"viability, T/C",[35],16.4%
same,"viability, T/C",[36],11.6%
same,"viability, T/C",[37],18.6%
same,"viability, T/C",[38],17.3%
same,"viability, T/C",[39],12.3%
same,"viability, T/C",[40],14.8%
same,"viability, T/C",[41],19.7%
same,"viability, T/C",[42],9.9%
Cn1ncnc1[C@H]1c2n[nH]c(=O)c3cc(F)cc(c23)N[C@@H]1c1ccc(F)cc1 + CN1CCN(c2cc(C(=O)Nc3cc4cc(-c5cnn(C)c5)ccc4cn3)ccn2)CC1,IC50,[1],> 100 nM
same,IC50,[2],> 100 nM
same,IC50,[3],< 0.316 nM
same,IC50,[4],< 0.316 nM
same,IC50,[5],< 0.316 nM
same,IC50,[6],< 0.316 nM
same,"viability, T/C","second compound 0.0316 µM, first compound 0.000316 µM",100%
same,"viability, T/C","second compound 0.0316 µM, first compound 0.001 µM",76.1%
same,"viability, T/C","second compound 0.0316 µM, first compound 0.00316 µM",91.5%
same,"viability, T/C","second compound 0.0316 µM, first compound 0.01 µM",82.1%
same,"viability, T/C",[7],135%
same,"viability, T/C",[8],102%
same,"viability, T/C","second compound 0.1 µM, first compound 0.000316 µM",86.2%
same,"viability, T/C","second compound 0.1 µM, first compound 0.001 µM",84.3%
same,"viability, T/C","second compound 0.1 µM, first compound 0.00316 µM",111%
same,"viability, T/C","second compound 0.1 µM, first compound 0.01 µM",112%
same,"viability, T/C",[13],110%
same,"viability, T/C",[14],90.9%
same,"viability, T/C","second compound 0.316 µM, first compound 0.000316 µM",16.9%
same,"viability, T/C","second compound 0.316 µM, first compound 0.001 µM",24%
same,"viability, T/C","second compound 0.316 µM, first compound 0.00316 µM",20.2%
same,"viability, T/C","second compound 0.316 µM, first compound 0.01 µM",21.3%
same,"viability, T/C",[19],21.5%
same,"viability, T/C",[20],19.5%
same,"viability, T/C","second compound 1 µM, first compound 0.000316 µM",0.16%
same,"viability, T/C","second compound 1 µM, first compound 0.001 µM",0.26%
same,"viability, T/C","second compound 1 µM, first compound 0.00316 µM",1.61%
same,"viability, T/C","second compound 1 µM, first compound 0.01 µM",0.19%
same,"viability, T/C",[25],1.31%
same,"viability, T/C",[26],0.83%
same,"viability, T/C","second compound 3.16 µM, first compound 0.000316 µM",0.42%
same,"viability, T/C","second compound 3.16 µM, first compound 0.001 µM",0.22%
same,"viability, T/C","second compound 3.16 µM, first compound 0.00316 µM",2.43%
same,"viability, T/C","second compound 3.16 µM, first compound 0.01 µM",0.14%
same,"viability, T/C",[31],1.43%
same,"viability, T/C",[32],2.75%
same,"viability, T/C","second compound 10 µM, first compound 0.000316 µM",0.15%
same,"viability, T/C","second compound 10 µM, first compound 0.001 µM",1.85%
same,"viability, T/C","second compound 10 µM, first compound 0.00316 µM",1.09%
same,"viability, T/C","second compound 10 µM, first compound 0.01 µM",1.69%
same,"viability, T/C",[37],0.53%
same,"viability, T/C",[38],1.35%
